Assays:
Assay type in all cases: in vivo
[1] = test system: transplanted Oryza sativa; experiment: Test Example 1: effect on crop, application before weed generation in submerged conditions; conditions: Application herbicide amount 320 g/ha; Seventeenth Table
Procedure, shortened: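 Submerged pot test: alluvial soil, 4 cm water, seeds sown mixed, 2.5-leaf rice transplanted; emulsion in water applied to surface day of sowing, dose g/ha; greenhouse 25–30° C.; 3 wk; 0–5 rating.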

Abutilon theophrasti = experiment: Test Example 4: herbicidal effect by application to foliage (diluvial soil, plastic box); conditions: application to foliage, application herbicide amount 320 g/ha
Procedure, shortened: (§1)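 Read-out is a 0–5 visual grade of herbicidal ratio (5: ≥90%, almost withered; 0: ≤5%) taken three weeks after treatment. Compound was applied as a diluted emulsion to stem and leaf parts of 14-day greenhouse-grown plants (25° C. to 30° C.) at rates expressed as g/ha.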

Alopecurus myosuroides = experiment: as above; conditions: application to foliage, application herbicide amount 320 g/ha
Procedure, shortened: as §1

Amaranthus retroflexus = experiment: as above; conditions: application to foliage, application herbicide amount 320 g/ha
Procedure, shortened: as §1

Apera spica-venti. = experiment: as above; conditions: application to foliage, application herbicide amount 320 g/ha
Procedure, shortened: as §1

Avena fatua = experiment: as above; conditions: application to foliage, application herbicide amount 320 g/ha
Procedure, shortened: as §1

Chenopodium album = experiment: as above; conditions: application to foliage, application herbicide amount 320 g/ha
Procedure, shortened: as §1

Digitaria ciliaris = experiment: as above; conditions: application to foliage, application herbicide amount 320 g/ha
Procedure, shortened: as §1

[2] = test system: Echinochloa crus-galli var. crus-galli; experiment: as above; conditions: application to foliage, application herbicide amount 320 g/ha
Procedure, shortened: as §1

Galium spurium = experiment: as above; conditions: application to foliage, application herbicide amount 320 g/ha
Procedure, shortened: as §1

Lolium multiflorum Lam. = experiment: as above; conditions: application to foliage, application herbicide amount 320 g/ha
Procedure, shortened: as §1

Setaria viridis = experiment: as above; conditions: application to foliage, application herbicide amount 320 g/ha
Procedure, shortened: as §1

Stellaria media = experiment: as above; conditions: application to foliage, application herbicide amount 320 g/ha
Procedure, shortened: as §1

Veronica persica = experiment: as above; conditions: application to foliage, application herbicide amount 320 g/ha
Procedure, shortened: as §1

[3] = test system: Beta vulgaris ssp. vulgaris; experiment: Test Example 4: effect on crop by application to foliage (diluvial soil, plastic box); conditions: application to foliage, application herbicide amount 320 g/ha
Procedure, shortened: as §1

Brassica campestris L. = experiment: as above; conditions: application to foliage, application herbicide amount 320 g/ha
Procedure, shortened: as §1

Glycine max = experiment: as above; conditions: application to foliage, application herbicide amount 320 g/ha
Procedure, shortened: as §1

Triticum aestivum = experiment: as above; conditions: application to foliage, application herbicide amount 320 g/ha
Procedure, shortened: as §1

Zea mays = experiment: as above; conditions: application to foliage, application herbicide amount 320 g/ha
Procedure, shortened: as §1

[4] = test system: directly sowed Oryza sativa; experiment: as above; conditions: application to foliage, application herbicide amount 320 g/ha
Procedure, shortened: as §1

## CCCc1nnc2c(C(=O)Nc3nnnn3C)ccc(C(F)(F)F)n12 [2-019]
[1]
  a: transplanted Oryza sativa (effect on crop grade): 2 (Herbicidal ratio of 20% or more and less than 40%)
Abutilon theophrasti
  M: herbicidal effect on Abutilon theophrasti: 5 (Herbicidal ratio of 90% or more (almost completely withered))
Alopecurus myosuroides
  J: herbicidal effect on Alopecurus myosuroides: 2 (Herbicidal ratio of 20% or more and less than 40%)
Amaranthus retroflexus
  N: herbicidal effect on Amaranthus retroflexus: 5 (Herbicidal ratio of 90% or more (almost completely withered))
Apera spica-venti.
  L: herbicidal effect on Apera spica-venti.: 4 (Herbicidal ratio of 70% or more and less than 90%)
Avena fatua
  I: herbicidal effect on Avena fatua: 3 (Herbicidal ratio of 40% or more and less than 70%)
Chenopodium album
  O: herbicidal effect on Chenopodium album: 5 (Herbicidal ratio of 90% or more (almost completely withered))
Digitaria ciliaris
  F: herbicidal effect on Digitaria ciliaris: 5 (Herbicidal ratio of 90% or more (almost completely withered))
[2]
  H: herbicidal effect on Echinochloa crus-galli var. crus-galli: 5 (Herbicidal ratio of 90% or more (almost completely withered))
Galium spurium
  Q: herbicidal effect on Galium spurium: 3 (Herbicidal ratio of 40% or more and less than 70%)
Lolium multiflorum Lam.
  K: herbicidal effect on Lolium multiflorum Lam.: 2 (Herbicidal ratio of 20% or more and less than 40%)
Setaria viridis
  G: herbicidal effect on Setaria viridis: 5 (Herbicidal ratio of 90% or more (almost completely withered))
Stellaria media
  P: herbicidal effect on Stellaria media: 5 (Herbicidal ratio of 90% or more (almost completely withered))
Veronica persica
  R: herbicidal effect on Veronica persica: 5 (Herbicidal ratio of 90% or more (almost completely withered))
[3]
  f: effect on crop, Beta vulgaris ssp. vulgaris: 5 (Herbicidal ratio of 90% or more (almost completely withered))
Brassica campestris L.
  g: effect on crop, Brassica campestris L.: 4 (Herbicidal ratio of 70% or more and less than 90%)
Glycine max
  d: effect on crop, Glycine max: 4 (Herbicidal ratio of 70% or more and less than 90%)
Triticum aestivum
  e: effect on crop, Triticum aestivum: 3 (Herbicidal ratio of 40% or more and less than 70%)
Zea mays
  c: effect on crop, Zea mays: 0 (Herbicidal ratio of 5% or less (almost no effect))
[4]
  b: effect on crop, directly sowed Oryza sativa: 4 (Herbicidal ratio of 70% or more and less than 90%)

## Cn1nnnc1NC(=O)c1ccc(C(F)(F)F)n2c(COc3ccccc3)nnc12 [2-020]
[1]
  a: transplanted Oryza sativa (effect on crop grade): 1 (Herbicidal ratio of 5% or more and less than 20%)
Abutilon theophrasti
  M: herbicidal effect on Abutilon theophrasti: 5 (Herbicidal ratio of 90% or more (almost completely withered))
Alopecurus myosuroides
  J: herbicidal effect on Alopecurus myosuroides: 0 (Herbicidal ratio of 5% or less (almost no effect))
Amaranthus retroflexus
  N: herbicidal effect on Amaranthus retroflexus: 4 (Herbicidal ratio of 70% or more and less than 90%)
Apera spica-venti.
  L: herbicidal effect on Apera spica-venti.: 1 (Herbicidal ratio of 5% or more and less than 20%)
Avena fatua
  I: herbicidal effect on Avena fatua: 1 (Herbicidal ratio of 5% or more and less than 20%)
Chenopodium album
  O: herbicidal effect on Chenopodium album: 5 (Herbicidal ratio of 90% or more (almost completely withered))
Digitaria ciliaris
  F: herbicidal effect on Digitaria ciliaris: 3 (Herbicidal ratio of 40% or more and less than 70%)
[2]
  H: herbicidal effect on Echinochloa crus-galli var. crus-galli: 3 (Herbicidal ratio of 40% or more and less than 70%)
Galium spurium
  Q: herbicidal effect on Galium spurium: 2 (Herbicidal ratio of 20% or more and less than 40%)
Lolium multiflorum Lam.
  K: herbicidal effect on Lolium multiflorum Lam.: 1 (Herbicidal ratio of 5% or more and less than 20%)
Setaria viridis
  G: herbicidal effect on Setaria viridis: 3 (Herbicidal ratio of 40% or more and less than 70%)
Stellaria media
  P: herbicidal effect on Stellaria media: 4 (Herbicidal ratio of 70% or more and less than 90%)
Veronica persica
  R: herbicidal effect on Veronica persica: 4 (Herbicidal ratio of 70% or more and less than 90%)
[3]
  f: effect on crop, Beta vulgaris ssp. vulgaris: 5 (Herbicidal ratio of 90% or more (almost completely withered))
Brassica campestris L.
  g: effect on crop, Brassica campestris L.: 3 (Herbicidal ratio of 40% or more and less than 70%)
Glycine max
  d: effect on crop, Glycine max: 3 (Herbicidal ratio of 40% or more and less than 70%)
Triticum aestivum
  e: effect on crop, Triticum aestivum: 1 (Herbicidal ratio of 5% or more and less than 20%)
Zea mays
  c: effect on crop, Zea mays: 0 (Herbicidal ratio of 5% or less (almost no effect))
[4]
  b: effect on crop, directly sowed Oryza sativa: 2 (Herbicidal ratio of 20% or more and less than 40%)

## Cn1nnnc1NC(=O)c1ccc(C(F)(F)F)n2c(C3CCCC3)nnc12 [2-021]
[1]
  a: transplanted Oryza sativa (effect on crop grade): 4 (Herbicidal ratio of 70% or more and less than 90%)
Abutilon theophrasti
  M: herbicidal effect on Abutilon theophrasti: 5 (Herbicidal ratio of 90% or more (almost completely withered))
Alopecurus myosuroides
  J: herbicidal effect on Alopecurus myosuroides: 3 (Herbicidal ratio of 40% or more and less than 70%)
Amaranthus retroflexus
  N: herbicidal effect on Amaranthus retroflexus: 5 (Herbicidal ratio of 90% or more (almost completely withered))
Apera spica-venti.
  L: herbicidal effect on Apera spica-venti.: 4 (Herbicidal ratio of 70% or more and less than 90%)
Avena fatua
  I: herbicidal effect on Avena fatua: 3 (Herbicidal ratio of 40% or more and less than 70%)
Chenopodium album
  O: herbicidal effect on Chenopodium album: 5 (Herbicidal ratio of 90% or more (almost completely withered))
Digitaria ciliaris
  F: herbicidal effect on Digitaria ciliaris: 5 (Herbicidal ratio of 90% or more (almost completely withered))
[2]
  H: herbicidal effect on Echinochloa crus-galli var. crus-galli: 5 (Herbicidal ratio of 90% or more (almost completely withered))
Galium spurium
  Q: herbicidal effect on Galium spurium: 4 (Herbicidal ratio of 70% or more and less than 90%)
Lolium multiflorum Lam.
  K: herbicidal effect on Lolium multiflorum Lam.: 3 (Herbicidal ratio of 40% or more and less than 70%)
Setaria viridis
  G: herbicidal effect on Setaria viridis: 5 (Herbicidal ratio of 90% or more (almost completely withered))
Stellaria media
  P: herbicidal effect on Stellaria media: 5 (Herbicidal ratio of 90% or more (almost completely withered))
Veronica persica
  R: herbicidal effect on Veronica persica: 5 (Herbicidal ratio of 90% or more (almost completely withered))
[3]
  f: effect on crop, Beta vulgaris ssp. vulgaris: 5 (Herbicidal ratio of 90% or more (almost completely withered))
Brassica campestris L.
  g: effect on crop, Brassica campestris L.: 4 (Herbicidal ratio of 70% or more and less than 90%)
Glycine max
  d: effect on crop, Glycine max: 4 (Herbicidal ratio of 70% or more and less than 90%)
Triticum aestivum
  e: effect on crop, Triticum aestivum: 3 (Herbicidal ratio of 40% or more and less than 70%)
Zea mays
  c: effect on crop, Zea mays: 0 (Herbicidal ratio of 5% or less (almost no effect))
[4]
  b: effect on crop, directly sowed Oryza sativa: 4 (Herbicidal ratio of 70% or more and less than 90%)

## Cn1nnnc1NC(=O)c1ccc(C(F)(F)F)n2c(C3CCOC3)nnc12 (centres unmarked) [2-022]
[1]
  a: transplanted Oryza sativa (effect on crop grade): 5 (Herbicidal ratio of 90% or more (almost completely withered))
Abutilon theophrasti
  M: herbicidal effect on Abutilon theophrasti: 5 (Herbicidal ratio of 90% or more (almost completely withered))
Alopecurus myosuroides
  J: herbicidal effect on Alopecurus myosuroides: 3 (Herbicidal ratio of 40% or more and less than 70%)
Amaranthus retroflexus
  N: herbicidal effect on Amaranthus retroflexus: 5 (Herbicidal ratio of 90% or more (almost completely withered))
Apera spica-venti.
  L: herbicidal effect on Apera spica-venti.: 5 (Herbicidal ratio of 90% or more (almost completely withered))
Avena fatua
  I: herbicidal effect on Avena fatua: 4 (Herbicidal ratio of 70% or more and less than 90%)
Chenopodium album
  O: herbicidal effect on Chenopodium album: 5 (Herbicidal ratio of 90% or more (almost completely withered))
Digitaria ciliaris
  F: herbicidal effect on Digitaria ciliaris: 4 (Herbicidal ratio of 70% or more and less than 90%)
[2]
  H: herbicidal effect on Echinochloa crus-galli var. crus-galli: 5 (Herbicidal ratio of 90% or more (almost completely withered))
Galium spurium
  Q: herbicidal effect on Galium spurium: 4 (Herbicidal ratio of 70% or more and less than 90%)
Lolium multiflorum Lam.
  K: herbicidal effect on Lolium multiflorum Lam.: 3 (Herbicidal ratio of 40% or more and less than 70%)
Setaria viridis
  G: herbicidal effect on Setaria viridis: 5 (Herbicidal ratio of 90% or more (almost completely withered))
Stellaria media
  P: herbicidal effect on Stellaria media: 5 (Herbicidal ratio of 90% or more (almost completely withered))
Veronica persica
  R: herbicidal effect on Veronica persica: 5 (Herbicidal ratio of 90% or more (almost completely withered))
[3]
  f: effect on crop, Beta vulgaris ssp. vulgaris: 5 (Herbicidal ratio of 90% or more (almost completely withered))
Brassica campestris L.
  g: effect on crop, Brassica campestris L.: 5 (Herbicidal ratio of 90% or more (almost completely withered))
Glycine max
  d: effect on crop, Glycine max: 5 (Herbicidal ratio of 90% or more (almost completely withered))
Triticum aestivum
  e: effect on crop, Triticum aestivum: 3 (Herbicidal ratio of 40% or more and less than 70%)
Zea mays
  c: effect on crop, Zea mays: 1 (Herbicidal ratio of 5% or more and less than 20%)
[4]
  b: effect on crop, directly sowed Oryza sativa: 5 (Herbicidal ratio of 90% or more (almost completely withered))

From patent publication US9708314B2, “Heterocyclic amide compound” (NISSAN CHEMICAL INDUSTRIES, LTD., priority 2013, dated 2017)
